Source: patent US4117121A, “Method of increasing bile flow and decreasing lipid levels” (Hoffmann-La Roche Inc., priority 1977, dated 1978)

Key:
[1] = tested on: bile flow; experiment: Comparative effect on bile flow (Example 2); format: in vivo, female rats; conditions: 100 mg intragastrically, vs average bile of two hours preceding treatment
Protocol: Female rats, weighing approximately 250 g, were fasted overnight prior to surgery; water was allowed ad libitum. The surgical procedures involving cannulation of the upper part of the common bile duct were carried out under Penthrane anesthesia. A catheter placed in the avascular part of the stomach was used for intragastric administration of emulsion; another catheter was placed in the duodenum. After surgery the rats were kept in restraining cages. Intraduodenal infusion of bile (collected previously from donors) was then started at the rate of 0.9 ml/hr. The infusion pressure was kept constant by means of a pump. Hydration was maintained by allowing the animals to drink saline ad libitum.
All rats were allowed~20 hours to recover from surgery. During this post-surgical period bile was collected in pooled samples of 16-18 hours. Having achieved steady hourly flow, the two samples obtained prior to the actual experiment were collected individually and considered as a control standard for each rat.
Bile samples were collected hourly, over a 24-hour period. The volume was measured to the nearest 0.1 ml.
The values in Table III were expressed for the purpose of the analysis, as a percent change from average bile collected in the two hours immediately preceding treatment.

[2] = tested on: triglyceride absorption; experiment: Inhibition of absorption of dietary triglyceride after oral corn oil load; format: in vivo, rats
Protocol: The ability of compound A to inhibit the absorption of dietary triglyceride in rats is determined by analyzing the rise in serum triglycerides after an oral load of corn oil. To 24 hours fasted rats (6 per group), compound A was administered orally at 1.1 mmoles/kg 15 minutes before a single oral dose of corn oil ([…]). Blood samples (0.4 ml) were collected from the rat tail 0, 2, 4, 6, 8 and 24 hours after compound administration. Each rat is its own control. Plasma samples were analyzed for triglyceride content by the procedure set forth in Kessler and H. Lederer, Tehnicon Symposium 1965 Automation in Analytical Chemistry Ed. L. Skeggs, published Mediad Inc. N.Y. (1966)pp341. The data in Table V is expressed as mg% change in plasma triglyceride levels compared to zero time control values at each time interval. This change in plasma triglycerides was determined by calculating the difference between the triglyceride level at each time point compared to zero time control level.
The procedure of Example 4 was followed except groups of 4 were utilized. Compound B was administered.

[3] = tested on: intestinal absorbtion of CHOLESTEROL; experiment: Intestinal absorption of cholesterol: appearance of 4-14C-cholesterol in thoracic duct lymph; format: in vivo, female albino rats (Charles River); conditions: 100 mg orally, vs Na-TC control, 14C-cholesterol in lymph; for % decrease of cholesterol, 0-8 hours: 0-8 hours after emulsion; for % decrease of cholesterol, 9-24 hours: 9-24 hours after emulsion
Source text: (§1) In these studies female albino rats (Charles River), weighing 300 ± 10 g were kept on a Purina chow diet ad libitum until the time of operation. […] This preparation enabled the production of lymph at a constant rate, the infusion of a bile salt, and the simultaneous collection of bile.
(§2) All animals received, after operation, a continuous duo denal infusion of sodium taurocholate (Na-TC) in 0.85% NaCl. One day after operation, the rats were given, by stomach intubation, an emulsion containing about 4% triolein, 20 μC of 4-^14 C-cholesterol (Specific Activity 61.7 mC/mM, 159 μC/mg), 2 mg of cholesterol, in addition to protein, carbohydrate, and saline. Both the Na-TC and the cholesterol carrier employed gave a single spot on either thin layer or glass fiber paper chromatograph so no further purification was attempted. The commercial glyceryl trioleate contained a large percentage of di- and monoolein. Triolein was, therefore, purified by passage through a silicic acid column; the final product gave a single spot on either glass fiber paper or thin layer chromatography.
(§3) To 4 ml of this emulsion was added 100 mg of either Na-TC (control group) or compounds A through D. This mixture was given orally to the animals.
(§4) The sampling of thoracic duct lymph and of bile was divided into two collecting periods, 0-8 and 9-24 h after emulsion administration.
Lymph specimens were lyophilized and the lipids in the residue were extracted with ethanol-isopropyl ether, 2:1 parts by volume, by procedure described in Gallo-Torres, et al; Biophys. Acta, 176 605-615 (1969). An aliquot of the lipid extract was placed on a small piece of glass fiber paper and counted. Another aliquot was used for the separation of cholesterol and its esters by glass fiber paper chromatography.
The effect of compounds A through D derivatives on the appearance of total ^14 C-cholesterol in the thoracic duct lymph of rats is summarized in Table I. Of the dose administered to the control animals, 5 × 10^5 dpm were recovered in the first 8 h and 3.4 × 10^6 dpm in the period of 9-24 h following administration of the emulsion. […] The tolerance of cholesterol in Table I is the % decrease in the 4-^14 C-cholesterol over the control appearing in the lymph during the specified period.

[4] = tested on: bile flow; experiment: Stimulation of bile flow (Example 1); format: in vivo, female albino rats (Charles River); conditions: 100 mg orally, over the Na-TC control
Source text: as §1, §2, §3, §4
In this table the results are expressed as the % increase in bile flow over the control.

[5] = molecular target: T1, rat pancreatic lipase (Rattus norvegicus, UniProt P27657); experiment: Inhibition of rat pancreatic lipase in vitro; format: biochemical; conditions: 14C-triolein emulsion, pH 8.6, 20 min at 37° C.
T1 sequence (P27657 17-465): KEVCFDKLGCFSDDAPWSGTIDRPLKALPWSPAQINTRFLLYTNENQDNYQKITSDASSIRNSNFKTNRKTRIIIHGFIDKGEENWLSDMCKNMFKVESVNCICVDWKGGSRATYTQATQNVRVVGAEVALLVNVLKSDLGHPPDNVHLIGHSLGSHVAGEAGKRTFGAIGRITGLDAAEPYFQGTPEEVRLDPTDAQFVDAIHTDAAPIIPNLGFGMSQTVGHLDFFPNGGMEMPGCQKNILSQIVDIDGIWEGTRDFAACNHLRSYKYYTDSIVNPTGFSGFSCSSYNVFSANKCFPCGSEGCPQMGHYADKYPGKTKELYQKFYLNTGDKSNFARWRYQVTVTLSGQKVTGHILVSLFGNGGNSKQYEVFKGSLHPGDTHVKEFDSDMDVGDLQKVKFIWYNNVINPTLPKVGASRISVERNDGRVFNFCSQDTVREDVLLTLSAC
Protocol: Dietary long-chain triglycerides must be hydrolyzed by pancreatic lipase in the duodenum before absorption can occur. […] The capacity of compounds B and C to inhibit rat pancreatic lipase in vitro was investigated. The ability of compounds to inhibit rat pancreatic lipase is determined by analyzing the nmoles of free fatty acid [oleic acid] released from [^14 C]-triolein. Compounds of B and C are added to an emulsion consisting of: 200,000 dpm ^14 C-triolein, 7.5 mg triolein, 0.75 mg sodium taurocholate, 15 mg bovine serum albumin and 0.9 ml 0.2 M tris-HCl - 0.15 M NaCl, pH 8.6, per assay. Water and/or pancreatic lipase is added to make an assay volume of 1.0 ml. The emulsion is incubated for 20 min at 37° C. in a shaking water bath. The reaction is stopped by the addition of isopropanol; H2 SO4 (40:1). The lipids are extracted twice with 3 ml volumes of hexane. The liberated fatty acids are extracted with 2 ml of 0.1 N KOH in 50% methanol. A 1 ml aliquot of the KOH layer is placed in a scintillation vial with 10 ml of 2,5-bis-2- (5-tertiarybutyl benzoxazolyl)thiophene. The radioactivity is determined in a scintillation counter. Data are expressed as nmoles free fatty acid [oleic acid] released.

[6] = tested on: cholesterol-7α-hydroxylase; experiment: Effect on activity of cholesterol-7α-hydroxylase; conditions: in words

Row | Compound | % increase in Bile Flow, 0-12 hours [1] | % increase in Bile Flow, 13-24 hours [1] | % increase in Bile Flow, overall 24 hour period [1] | % decrease of cholesterol, 0-8 hours [3] [%] | % decrease of cholesterol, 9-24 hours [3] [%] | % increase of Bile Flow, 0-8 hours [4] | % increase of Bile Flow, 9-24 hours [4] | other results
1 | C[C@H](CCC(=O)O)[C@H]1CC[C@H]2[C@@H]3[C@H](O)C[C@@H]4C[C@H](O)CC[C@]4(C)[C@H]3CC[C@]12C [CDC, chenodeoxycholic acid] | +504% | +9% | +513% | – | – | – | – | –
2 | C[C@]12CC[C@@H](O)C[C@H]1CC[C@@H]1[C@@H]2C[C@H](O)[C@]2(C)[C@@H](C(=O)O)CC[C@@H]12 [Compound A, 3α, 12α-dihydroxy-etiocholane-17β-carboxylicacid] | +286% | +79% | +365% | 0 | 79 | +18% | -3% | Change in Plasma Triglyceride Levels, 4 hr ([2]; 4 hr, 1.1 mmoles/kg orally, 15 minutes before corn oil, 6 per group, vs zero time): 50 ± 13 mg%; Change in Plasma Triglyceride Levels, 6 hr ([2]; 6 hr, 1.1 mmoles/kg orally, 15 minutes before corn oil, 6 per group, vs zero time): 113 ± 34 mg%; Change in Plasma Triglyceride Levels, 8 hr ([2]; 8 hr, 1.1 mmoles/kg orally, 15 minutes before corn oil, 6 per group, vs zero time, *p<0.05): 164 ± 40 mg%; Change in Plasma Triglyceride Levels, 24 hr ([2]; 24 hr, 1.1 mmoles/kg orally, 15 minutes before corn oil, 6 per group, vs zero time): 83 ± 11 mg%; Change in Plasma Triglyceride Levels, 2 hr ([2]; po, 1100 umol/kg): 37 ± 9 mg%
3 | C[C@H](C(=O)O)[C@H]1CC[C@H]2[C@@H]3CC[C@@H]4C[C@H](O)CC[C@]4(C)[C@H]3C[C@H](O)[C@]12C [Compound B, 3α, 12α-dihydroxy-5β-23,24-bisnorcholanic acid] | +517% | +113% | +630% | 0 | 0 | +38% | +47% | Change in Plasma Triglycerides, 2 hr ([2]; Example 5, 2 hr, procedure of Example 4, groups of 4): -3 mg%; Change in Plasma Triglycerides, 4 hr ([2]; Example 5, 4 hr, procedure of Example 4, groups of 4): 7 mg%; Change in Plasma Triglycerides, 6 hr ([2]; Example 5, 6 hr, procedure of Example 4, groups of 4): 15 mg%; Change in Plasma Triglycerides, 8 hr ([2]; Example 5, 8 hr, procedure of Example 4, groups of 4): 54 mg%; Change in Plasma Triglycerides, 24 hr ([2]; Example 5, 24 hr, procedure of Example 4, groups of 4): 30 mg%; Ki [5]: 14 mM
4 | C[C@H](CC(=O)O)[C@H]1CC[C@H]2[C@@H]3CC[C@@H]4C[C@H](O)CC[C@]4(C)[C@H]3C[C@H](O)[C@]12C [Compound C, 3α, 12α-dihydroxy-5-β-norcholanic acid] | – | – | – | 40 | 53 | +4% | +30% | Ki [5]: 1 mM
5 | C[C@H](CCO)[C@H]1CC[C@H]2[C@@H]3CC[C@@H]4C[C@H](O)CC[C@]4(C)[C@H]3C[C@H](O)[C@]12C [Compound D, 3α, 12α, 23-trihydroxy-5β-24-norcholane] | – | – | – | 84 | 44 | +22% | +14% | –
6 | C[C@H](CCC(=O)O)[C@H]1CC[C@H]2[C@@H]3[C@H](O)C[C@@H]4C[C@H](O)CC[C@]4(C)[C@H]3C[C@H](O)[C@]12C [cholic acid, 3α, 7α, 12α-trihydroxy-5β-cholanic acid] | +161% | – | +38% | – | – | – | – | effect on the activity of cholesterol-7α-hydroxylase [6]: adverse effect
7 | C[C@H](CCC(=O)O)[C@H]1CC[C@H]2[C@@H]3CC[C@@H]4C[C@H](O)CC[C@]4(C)[C@H]3C[C@H](O)[C@]12C [deoxycholic acid, 3α, 12α-dihydroxy-5β-cholanic acid] | +335% | – | +219% | – | – | – | – | effect on the activity of cholesterol-7α-hydroxylase [6]: adverse effect
